Measured values: patent US12257237B2 (priority 2017, dated 2025)
“And” between values parts separate entries of the source, which are not always exact repeats. Equal values may be shown once.

Tested on: DD013 dedifferentiated liposarcoma
Assay: Antitumour activity in DD013 dedifferentiated liposarcoma xenograft model
Type: in vivo, Athymic nude mice
Experimental: Experiments were performed with female Athymic nude mice, 9-10 weeks old obtained from Harlan Laboratories (Udine, Italy). They were maintained under Specific Pathogen Free conditions with constant temperature and humidity, according to the institutional guidelines.
Tumour growth mice was monitored two/three times a week (depending on tumour growth rate, to avoid unnecessary stress to the animals) by Vernier caliper. Mice were sacrificed when tumour reached a mean weight of 2±0.5 gr. The antitumour activity will be expressed as T/C %, where T and C were the mean tumour weight of treated and control groups, respectively. Mice were monitored daily and weighted at least two times a week. Tolerability was evaluated on the basis of body weight loss (BWL) and clinical observation.
Statistical analysis was performed with GraphPad Prism version 6.01 software (GraphPad software, Inc., La Jolla, CA, USA). ANOVA test was performed to evaluate if there were statistically significant differences between treated and control groups.
Briefly, xenografts were obtained by transplanting 3-4 mm tumour fragments s.c. in the flanks of mice. The growing tumour masses were measured with the aid of a Vernier caliper, and the tumour weights (TW, 1 mm^3=1 mg) were calculated by the formula: length×(width) 2/2. When tumour load achieved about 200-400 mg, mice were randomized into the experimental groups.

Cn1c(CCCCCCC(=O)NO)nc2cc(N(CCCl)CCCl)ccc21 [EDO-S101, 7-(5-(bis(2-chloroethyl)amino)-1-methyl-1H-benzo[d]imidazol-2-yl)-N-hydroxyheptanamide]
DD0113 tumour weight, Mean (EDO60: EDO-S101 60 mg/kg q7dx3, day 87 from inoculum): 393.6 mg
DD0113 tumour weight, Mean (EDO60: EDO-S101 60 mg/kg q7dx3, day 90 from inoculum): 436.6 mg
DD0113 tumour weight, individual mouse (EDO60: EDO-S101 60 mg/kg q7dx3, day 90 from inoculum, 60 mg/kg): 118.4 mg and 56.3 mg and 626.5 mg and 82.7 mg and 234.7 mg and 492.6 mg and 49.6 mg
DD0113 tumour weight, Mean (EDO60: EDO-S101 60 mg/kg q7dx3, day 94 from inoculum): 476.6 mg
DD0113 tumour weight, individual mouse (EDO60: EDO-S101 60 mg/kg q7dx3, day 94 from inoculum, 60 mg/kg): 135.6 mg and 73.5 mg and 693.0 mg and 95.1 mg and 279.8 mg and 598.8 mg and 43.4 mg
DD0113 tumour weight, Mean (EDO60: EDO-S101 60 mg/kg q7dx3, day 98 from inoculum): 451.5 mg
DD0113 tumour weight, individual mouse (EDO60: EDO-S101 60 mg/kg q7dx3, day 98 from inoculum, 60 mg/kg): 113.6 mg and 57.9 mg and 655.0 mg and 70.1 mg and 225.1 mg and 584.9 mg and 30.7 mg
DD0113 tumour weight, Mean (EDO60: EDO-S101 60 mg/kg q7dx3, day 100 from inoculum): 518.4 mg
DD0113 tumour weight, individual mouse (EDO60: EDO-S101 60 mg/kg q7dx3, day 100 from inoculum, 60 mg/kg): 122.1 mg and 86.5 mg and 751.1 mg and 87.0 mg and 297.7 mg and 718.0 mg and 40.7 mg
DD0113 tumour weight, Mean (EDO60: EDO-S101 60 mg/kg q7dx3, day 103 from inoculum): 503.0 mg
DD0113 tumour weight, individual mouse (EDO60: EDO-S101 60 mg/kg q7dx3, day 103 from inoculum, 60 mg/kg): 70.5 mg and 747.9 mg and 89.6 mg and 231.0 mg and 670.9 mg and 37.5 mg
DD0113 tumour weight, Mean (EDO60: EDO-S101 60 mg/kg q7dx3, day 111 from inoculum): 502.0 mg
DD0113 tumour weight, individual mouse (EDO60: EDO-S101 60 mg/kg q7dx3, day 111 from inoculum, 60 mg/kg): 90.0 mg and 45.6 mg and 813.1 mg and 62.2 mg and 245.9 mg and 686.9 mg and 33.9 mg
DD0113 tumour weight, Mean (EDO60: EDO-S101 60 mg/kg q7dx3, day 114 from inoculum): 624.6 mg
DD0113 tumour weight, individual mouse (EDO60: EDO-S101 60 mg/kg q7dx3, day 114 from inoculum, 60 mg/kg): 131.7 mg and 81.4 mg and 999.4 mg and 119.1 mg and 284.3 mg and 935.9 mg and 61.0 mg
DD0113 tumour weight, Mean (EDO60: EDO-S101 60 mg/kg q7dx3, day 118 from inoculum): 747.2 mg
DD0113 tumour weight, individual mouse (EDO60: EDO-S101 60 mg/kg q7dx3, day 118 from inoculum, 60 mg/kg): 157.8 mg and 79.8 mg and 1342.5 mg and 134.3 mg and 364.6 mg and 1024.5 mg and 64.1 mg
DD0113 tumour weight, Mean (EDO80: EDO-S101 80 mg/kg single dose, day 23 from inoculum): 198.0 mg
DD0113 tumour weight, individual mouse (EDO80: EDO-S101 80 mg/kg single dose, day 23 from inoculum, 80 mg/kg): 361.8 mg and 272.9 mg and 241.0 mg and 225.2 mg and 191.6 mg
DD0113 tumour weight, Mean (EDO80: EDO-S101 80 mg/kg single dose, day 26 from inoculum): 253.1 mg
DD0113 tumour weight, individual mouse (EDO80: EDO-S101 80 mg/kg single dose, day 26 from inoculum, 80 mg/kg): 410.2 mg and 433.7 mg and 275.2 mg and 338.5 mg and 196.8 mg
DD0113 tumour weight, Mean (EDO80: EDO-S101 80 mg/kg single dose, day 29 from inoculum): 251.2 mg
DD0113 tumour weight, individual mouse (EDO80: EDO-S101 80 mg/kg single dose, day 29 from inoculum, 80 mg/kg): 399.5 mg and 447.9 mg and 310.3 mg and 335.3 mg and 179.1 mg
DD0113 tumour weight, Mean (EDO80: EDO-S101 80 mg/kg single dose, day 33 from inoculum): 251.0 mg
DD0113 tumour weight, individual mouse (EDO80: EDO-S101 80 mg/kg single dose, day 33 from inoculum, 80 mg/kg): 456.2 mg and 408.9 mg and 293.6 mg and 271.4 mg and 220.9 mg
DD0113 tumour weight, Mean (EDO80: EDO-S101 80 mg/kg single dose, day 36 from inoculum): 256.4 mg
DD0113 tumour weight, individual mouse (EDO80: EDO-S101 80 mg/kg single dose, day 36 from inoculum, 80 mg/kg): 466.8 mg and 431.6 mg and 284.2 mg and 280.3 mg and 194.9 mg
DD0113 tumour weight, Mean (EDO80: EDO-S101 80 mg/kg single dose, day 40 from inoculum): 283.7 mg
DD0113 tumour weight, individual mouse (EDO80: EDO-S101 80 mg/kg single dose, day 40 from inoculum, 80 mg/kg): 569.1 mg and 476.7 mg and 364.0 mg and 279.7 mg and 216.2 mg
DD0113 tumour weight, Mean (EDO80: EDO-S101 80 mg/kg single dose, day 43 from inoculum): 284.8 mg
DD0113 tumour weight, individual mouse (EDO80: EDO-S101 80 mg/kg single dose, day 43 from inoculum, 80 mg/kg): 500.6 mg and 547.3 mg and 355.5 mg and 255.8 mg and 227.9 mg
DD0113 tumour weight, Mean (EDO80: EDO-S101 80 mg/kg single dose, day 47 from inoculum): 326.3 mg
DD0113 tumour weight, individual mouse (EDO80: EDO-S101 80 mg/kg single dose, day 47 from inoculum, 80 mg/kg): 626.2 mg and 643.5 mg and 338.2 mg and 321.9 mg and 275.0 mg
DD0113 tumour weight, Mean (EDO80: EDO-S101 80 mg/kg single dose, day 50 from inoculum): 384.4 mg
DD0113 tumour weight, individual mouse (EDO80: EDO-S101 80 mg/kg single dose, day 50 from inoculum, 80 mg/kg): 686.0 mg and 716.7 mg and 447.7 mg and 447.8 mg and 297.1 mg
DD0113 tumour weight, Mean (EDO80: EDO-S101 80 mg/kg single dose, day 54 from inoculum): 418.9 mg
DD0113 tumour weight, Mean (EDO80: EDO-S101 80 mg/kg single dose, day 58 from inoculum): 511.4 mg
DD0113 tumour weight, Mean (EDO80: EDO-S101 80 mg/kg single dose, day 62 from inoculum): 549.2 mg
DD0113 tumour weight, Mean (EDO80: EDO-S101 80 mg/kg single dose, day 65 from inoculum): 540.3 mg
DD0113 tumour weight, Mean (EDO80: EDO-S101 80 mg/kg single dose, day 69 from inoculum): 531.6 mg
DD0113 tumour weight, Mean (EDO80: EDO-S101 80 mg/kg single dose, day 72 from inoculum): 581.5 mg
DD0113 tumour weight, Mean (EDO80: EDO-S101 80 mg/kg single dose, day 75 from inoculum): 560.9 mg
DD0113 tumour weight, Mean (EDO80: EDO-S101 80 mg/kg single dose, day 79 from inoculum): 564.1 mg
DD0113 tumour weight, Mean (EDO80: EDO-S101 80 mg/kg single dose, day 83 from inoculum): 475.0 mg
DD0113 tumour weight, Mean (EDO80: EDO-S101 80 mg/kg single dose, day 87 from inoculum): 594.1 mg
DD0113 tumour weight, Mean (EDO80: EDO-S101 80 mg/kg single dose, day 90 from inoculum): 638.8 mg
DD0113 tumour weight, Mean (EDO80: EDO-S101 80 mg/kg single dose, day 94 from inoculum): 826.0 mg
DD0113 tumour weight, Mean (EDO80: EDO-S101 80 mg/kg single dose, day 98 from inoculum): 927.2 mg
DD0113 tumour weight, Mean (EDO80: EDO-S101 80 mg/kg single dose, day 100 from inoculum): 1209.8 mg
DD0113 tumour weight, Mean (EDO80: EDO-S101 80 mg/kg single dose, day 103 from inoculum): 1301.2 mg
